Results as given in PubChem BioAssay AID1918935 (Molecular Pharmacology Branch, DTP, NCI, 2023).
pIC50: −log10 of the molar value. Where “and” joins values, the source holds several entries; their conditions need not be identical. Equal entries are not always repeated. One block for each molecule: values may come before it.

Tested on: 324938-238-R-J1-PDC complex spheroid viability
Experiment: Anticancer human tumor 324938-238-R-J1-PDC patient-derived bladder carcinoma cell line growth inhibition
Conditions: for viability, T/C: stronger effect = lower value
Method in brief: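 Complex spheroids of tumor cells with HUVEC and human MSCs, exposed to iadademstat combined with other agents. Each agent tested in half-log steps from near clinical Cmax (else 10 microM top), DMSO ≤0.25%.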

[1] = curve of first compound, second compound 0.1 µM
[2] = curve of first compound, second compound 0.316 µM
[3] = curve of first compound, second compound 1 µM
[4] = curve of first compound, second compound 3.16 µM
[5] = curve of first compound, second compound 10 µM
[6] = second compound 0.1 µM, first compound 0.0316 µM
[7] = second compound 0.1 µM, first compound 0.1 µM
[8] = second compound 0.1 µM, first compound 0.316 µM
[9] = second compound 0.1 µM, first compound 1 µM
[10] = second compound 0.316 µM, first compound 0.0316 µM
[11] = second compound 0.316 µM, first compound 0.1 µM
[12] = second compound 0.316 µM, first compound 0.316 µM
[13] = second compound 0.316 µM, first compound 1 µM
[14] = second compound 1 µM, first compound 0.0316 µM
[15] = second compound 1 µM, first compound 0.1 µM
[16] = second compound 1 µM, first compound 0.316 µM
[17] = second compound 1 µM, first compound 1 µM
[18] = second compound 3.16 µM, first compound 0.0316 µM
[19] = second compound 3.16 µM, first compound 0.1 µM
[20] = second compound 3.16 µM, first compound 0.316 µM
[21] = second compound 3.16 µM, first compound 1 µM
[22] = second compound 10 µM, first compound 0.0316 µM
[23] = second compound 10 µM, first compound 0.1 µM
[24] = second compound 10 µM, first compound 0.316 µM
[25] = second compound 10 µM, first compound 1 µM
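Also: spheroids also contain HUVEC and human MSCs and agents combined with iadademstat; spheroids exposed to agents for 7 days before readout.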

SMILES: CCc1c2c(nc3ccc(O)cc13)-c1cc3c(c(=O)n1C2)COC(=O)[C@]3(O)CC + NC1CCC(NC2CC2c2ccccc2)CC1
pIC50 [1]: > 9.02 | pIC50 [2]: > 9.02 | pIC50 [3]: > 9.02 | pIC50 [4]: > 9.02 | pIC50 [5]: > 9.02 | viability, T/C (second compound 0.1 µM, first compound 0.000949 µM): 8.91% | viability, T/C (second compound 0.1 µM, first compound 0.003 µM): 8.28% | viability, T/C (second compound 0.1 µM, first compound 0.00949 µM): 5.05% | viability, T/C (second compound 0.1 µM, first compound 0.03 µM): 2.05% | viability, T/C (second compound 0.1 µM, first compound 0.0949 µM): 0.06% | viability, T/C (second compound 0.1 µM, first compound 0.3 µM): 0.13% | viability, T/C (second compound 0.316 µM, first compound 0.000949 µM): 7.86% | viability, T/C (second compound 0.316 µM, first compound 0.003 µM): 10.2% | viability, T/C (second compound 0.316 µM, first compound 0.00949 µM): 6.24% | viability, T/C (second compound 0.316 µM, first compound 0.03 µM): 2.68% | viability, T/C (second compound 0.316 µM, first compound 0.0949 µM): 0.06% | viability, T/C (second compound 0.316 µM, first compound 0.3 µM): 0.11% | viability, T/C (second compound 1 µM, first compound 0.000949 µM): 8.46% | viability, T/C (second compound 1 µM, first compound 0.003 µM): 8.97% | viability, T/C (second compound 1 µM, first compound 0.00949 µM): 6.82% | viability, T/C (second compound 1 µM, first compound 0.03 µM): 2.81% | viability, T/C (second compound 1 µM, first compound 0.0949 µM): 0.06% | viability, T/C (second compound 1 µM, first compound 0.3 µM): 0.1% | viability, T/C (second compound 3.16 µM, first compound 0.000949 µM): 9.74% | viability, T/C (second compound 3.16 µM, first compound 0.003 µM): 9.76% | viability, T/C (second compound 3.16 µM, first compound 0.00949 µM): 7.3% | viability, T/C (second compound 3.16 µM, first compound 0.03 µM): 2.95% | viability, T/C (second compound 3.16 µM, first compound 0.0949 µM): 0.08% | viability, T/C (second compound 3.16 µM, first compound 0.3 µM): 0.11% | viability, T/C (second compound 10 µM, first compound 0.000949 µM): 9.49% | viability, T/C (second compound 10 µM, first compound 0.003 µM): 9.84% | viability, T/C (second compound 10 µM, first compound 0.00949 µM): 8.1% | viability, T/C (second compound 10 µM, first compound 0.03 µM): 2.75% | viability, T/C (second compound 10 µM, first compound 0.0949 µM): 0.08% | viability, T/C (second compound 10 µM, first compound 0.3 µM): 0.13%

SMILES: Nc1ncn(C2CC(O)C(CO)O2)c(=O)n1 (configuration not stated) + NC1CCC(NC2CC2c2ccccc2)CC1
pIC50 [1]: 6.75 | pIC50 [2]: 6.59 | pIC50 [3]: 6.80 | pIC50 [4]: 6.89 | pIC50 [5]: 6.63 | viability, T/C (second compound 0.1 µM, first compound 0.00316 µM): 71.8% | viability, T/C (second compound 0.1 µM, first compound 0.01 µM): 66% | viability, T/C [6]: 59.3% | viability, T/C [7]: 56.1% | viability, T/C [8]: 44% | viability, T/C [9]: 40.3% | viability, T/C (second compound 0.316 µM, first compound 0.00316 µM): 74.9% | viability, T/C (second compound 0.316 µM, first compound 0.01 µM): 67.1% | viability, T/C [10]: 68.4% | viability, T/C [11]: 55.1% | viability, T/C [12]: 45.6% | viability, T/C [13]: 42% | viability, T/C (second compound 1 µM, first compound 0.00316 µM): 73.2% | viability, T/C (second compound 1 µM, first compound 0.01 µM): 58.7% | viability, T/C [14]: 60.4% | viability, T/C [15]: 50.7% | viability, T/C [16]: 46.2% | viability, T/C [17]: 47% | viability, T/C (second compound 3.16 µM, first compound 0.00316 µM): 61.9% | viability, T/C (second compound 3.16 µM, first compound 0.01 µM): 58.6% | viability, T/C [18]: 54.3% | viability, T/C [19]: 53.4% | viability, T/C [20]: 44.5% | viability, T/C [21]: 39.5% | viability, T/C (second compound 10 µM, first compound 0.00316 µM): 63.5% | viability, T/C (second compound 10 µM, first compound 0.01 µM): 67.3% | viability, T/C [22]: 57.9% | viability, T/C [23]: 59.1% | viability, T/C [24]: 45.2% | viability, T/C [25]: 37%

pIC50 (curve of compound): 6.26 and 6.29
SMILES: Nc1ccccc1NC(=O)c1ccc(CNC(=O)OCc2cccnc2)cc1
viability, T/C (compound 0.00949 µM): 112% and 111% | viability, T/C (compound 0.03 µM): 107% and 111% | viability, T/C (compound 0.0949 µM): 96.8% and 88.3% | viability, T/C (compound 0.3 µM): 63.3% and 59.8% | viability, T/C (compound 0.949 µM): 37.7% and 37.5% | viability, T/C (compound 3 µM): 9.59% and 7.01%

SMILES: COc1ccc([C@@H](O)c2cc(-c3ncnc4cc(N5CCOCC5)ccc34)c(F)cc2Cl)nn1 + NC1CCC(NC2CC2c2ccccc2)CC1
pIC50 [1]: 5.76 | pIC50 [2]: 5.73 | pIC50 [3]: 5.88 | pIC50 [4]: 6.03 | pIC50 [5]: 5.96 | viability, T/C [6]: 81.4% | viability, T/C [7]: 70.8% | viability, T/C [8]: 63.3% | viability, T/C [9]: 61.1% | viability, T/C (second compound 0.1 µM, first compound 3.16 µM): 42.8% | viability, T/C (second compound 0.1 µM, first compound 10 µM): 26.8% | viability, T/C [10]: 80.8% | viability, T/C [11]: 76.7% | viability, T/C [12]: 61.4% | viability, T/C [13]: 58% | viability, T/C (second compound 0.316 µM, first compound 3.16 µM): 47.7% | viability, T/C (second compound 0.316 µM, first compound 10 µM): 28.9% | viability, T/C [14]: 72.9% | viability, T/C [15]: 73.4% | viability, T/C [16]: 65.2% | viability, T/C [17]: 50.3% | viability, T/C (second compound 1 µM, first compound 3.16 µM): 42.6% | viability, T/C (second compound 1 µM, first compound 10 µM): 28.5% | viability, T/C [18]: 70% | viability, T/C [19]: 78% | viability, T/C [20]: 59.3% | viability, T/C [21]: 48.4% | viability, T/C (second compound 3.16 µM, first compound 3.16 µM): 38.3% | viability, T/C (second compound 3.16 µM, first compound 10 µM): 26.4% | viability, T/C [22]: 64.8% | viability, T/C [23]: 76.5% | viability, T/C [24]: 61.6% | viability, T/C [25]: 50.2% | viability, T/C (second compound 10 µM, first compound 3.16 µM): 37% | viability, T/C (second compound 10 µM, first compound 10 µM): 26%
